This note sets out measurements from patent US20200239530A1, “COMPOUNDS AND METHODS OF MODULATING PROTEIN DEGRADATION” (Vividion Therapeutics, Inc., priority 2017, published 2020).

The structures appear in SMILES notation.

What all share (experiment): Cysteine liganding, probe competition
Holding throughout (assay type): binding

In assay [1] the target is T1, EEF1A1 Elongation factor 1-alpha 1 (Homo sapiens, UniProt P68104).
T1 construct: 200 μL of lysate containing 5 mg/ml proteome was treated with 2 μL of 100× compound stock; endogenous in cells
T1 sequence (P68104 1-462): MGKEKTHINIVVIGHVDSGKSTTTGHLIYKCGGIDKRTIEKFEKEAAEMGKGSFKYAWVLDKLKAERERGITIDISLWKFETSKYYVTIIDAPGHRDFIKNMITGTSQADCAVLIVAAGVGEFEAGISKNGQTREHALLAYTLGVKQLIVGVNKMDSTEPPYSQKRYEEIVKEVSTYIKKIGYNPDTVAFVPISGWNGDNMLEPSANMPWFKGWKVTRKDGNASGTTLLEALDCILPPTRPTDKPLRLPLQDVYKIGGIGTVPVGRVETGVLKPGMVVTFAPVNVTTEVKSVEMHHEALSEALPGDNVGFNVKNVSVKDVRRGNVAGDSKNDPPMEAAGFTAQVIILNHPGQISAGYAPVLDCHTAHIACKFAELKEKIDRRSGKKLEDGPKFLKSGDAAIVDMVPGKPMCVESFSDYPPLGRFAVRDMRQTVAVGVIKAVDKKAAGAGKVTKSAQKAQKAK
The method, boiled down:
(§1)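 Lysates from probe-sonicated cells in PBS (5 mg/ml proteome) were exposed to compound for 1 hr at 25° C, then labelled with desthiobiotin iodoacetamide probe (10 mM stock) for 1 hr at 25° C. Probe-tagged peptides were streptavidin-enriched after trypsin digestion.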

Another assay deals with T2, RNF7 RING-box protein 2 (Homo sapiens, UniProt Q9UBF6).
T2 construct: Cells were resuspended in cold PBS on ice and sonicated with a probe sonicator to achieve lysis; endogenous in cells
T2 sequence (Q9UBF6 1-113): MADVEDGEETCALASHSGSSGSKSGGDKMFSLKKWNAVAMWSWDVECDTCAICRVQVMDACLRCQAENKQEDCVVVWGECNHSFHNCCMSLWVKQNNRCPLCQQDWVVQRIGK
In short, it runs like this: as §1

Assay [2] has as its target T3, DIP2A Disco-interacting protein 2 homolog A (Homo sapiens, UniProt Q14689).
T3 construct: 200 μL of lysate containing 5 mg/ml proteome was treated with 2 μL of 100× compound stock; endogenous in cells
To be noted: for Liganded: DIP2A Res# 6, uniprot Q14689. The method, boiled down: as §1

For assay [3], the target named is T4, PIAS4 E3 SUMO-protein ligase PIAS4 (Homo sapiens, UniProt Q8N2W9).
T4 construct: Cells were resuspended in cold PBS on ice and sonicated with a probe sonicator to achieve lysis; endogenous in cells
T4 sequence (Q8N2W9 1-510): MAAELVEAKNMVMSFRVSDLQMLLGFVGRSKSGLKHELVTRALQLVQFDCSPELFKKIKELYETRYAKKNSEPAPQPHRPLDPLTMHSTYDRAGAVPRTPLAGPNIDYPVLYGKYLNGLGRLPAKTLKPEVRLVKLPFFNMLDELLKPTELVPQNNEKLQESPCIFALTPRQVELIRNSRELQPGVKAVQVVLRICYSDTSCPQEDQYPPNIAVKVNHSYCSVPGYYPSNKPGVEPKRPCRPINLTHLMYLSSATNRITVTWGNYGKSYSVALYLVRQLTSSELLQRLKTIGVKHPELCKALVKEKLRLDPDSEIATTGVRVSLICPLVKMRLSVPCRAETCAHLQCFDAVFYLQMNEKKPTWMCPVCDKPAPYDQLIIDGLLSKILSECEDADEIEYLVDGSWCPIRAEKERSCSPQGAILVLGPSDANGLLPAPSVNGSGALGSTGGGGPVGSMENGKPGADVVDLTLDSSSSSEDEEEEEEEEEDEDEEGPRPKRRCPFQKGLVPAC
As to conditions: for Liganded: PIAS4 Res# 326, uniprot Q8N2W9. The method, boiled down: as §1

Setting [4] is: EEF1A1 Res# 363, uniprot P68104.
[5] abbreviates: EEF1A1 Res# 370, uniprot P68104.

T3 sequence (Q14689 whole entry): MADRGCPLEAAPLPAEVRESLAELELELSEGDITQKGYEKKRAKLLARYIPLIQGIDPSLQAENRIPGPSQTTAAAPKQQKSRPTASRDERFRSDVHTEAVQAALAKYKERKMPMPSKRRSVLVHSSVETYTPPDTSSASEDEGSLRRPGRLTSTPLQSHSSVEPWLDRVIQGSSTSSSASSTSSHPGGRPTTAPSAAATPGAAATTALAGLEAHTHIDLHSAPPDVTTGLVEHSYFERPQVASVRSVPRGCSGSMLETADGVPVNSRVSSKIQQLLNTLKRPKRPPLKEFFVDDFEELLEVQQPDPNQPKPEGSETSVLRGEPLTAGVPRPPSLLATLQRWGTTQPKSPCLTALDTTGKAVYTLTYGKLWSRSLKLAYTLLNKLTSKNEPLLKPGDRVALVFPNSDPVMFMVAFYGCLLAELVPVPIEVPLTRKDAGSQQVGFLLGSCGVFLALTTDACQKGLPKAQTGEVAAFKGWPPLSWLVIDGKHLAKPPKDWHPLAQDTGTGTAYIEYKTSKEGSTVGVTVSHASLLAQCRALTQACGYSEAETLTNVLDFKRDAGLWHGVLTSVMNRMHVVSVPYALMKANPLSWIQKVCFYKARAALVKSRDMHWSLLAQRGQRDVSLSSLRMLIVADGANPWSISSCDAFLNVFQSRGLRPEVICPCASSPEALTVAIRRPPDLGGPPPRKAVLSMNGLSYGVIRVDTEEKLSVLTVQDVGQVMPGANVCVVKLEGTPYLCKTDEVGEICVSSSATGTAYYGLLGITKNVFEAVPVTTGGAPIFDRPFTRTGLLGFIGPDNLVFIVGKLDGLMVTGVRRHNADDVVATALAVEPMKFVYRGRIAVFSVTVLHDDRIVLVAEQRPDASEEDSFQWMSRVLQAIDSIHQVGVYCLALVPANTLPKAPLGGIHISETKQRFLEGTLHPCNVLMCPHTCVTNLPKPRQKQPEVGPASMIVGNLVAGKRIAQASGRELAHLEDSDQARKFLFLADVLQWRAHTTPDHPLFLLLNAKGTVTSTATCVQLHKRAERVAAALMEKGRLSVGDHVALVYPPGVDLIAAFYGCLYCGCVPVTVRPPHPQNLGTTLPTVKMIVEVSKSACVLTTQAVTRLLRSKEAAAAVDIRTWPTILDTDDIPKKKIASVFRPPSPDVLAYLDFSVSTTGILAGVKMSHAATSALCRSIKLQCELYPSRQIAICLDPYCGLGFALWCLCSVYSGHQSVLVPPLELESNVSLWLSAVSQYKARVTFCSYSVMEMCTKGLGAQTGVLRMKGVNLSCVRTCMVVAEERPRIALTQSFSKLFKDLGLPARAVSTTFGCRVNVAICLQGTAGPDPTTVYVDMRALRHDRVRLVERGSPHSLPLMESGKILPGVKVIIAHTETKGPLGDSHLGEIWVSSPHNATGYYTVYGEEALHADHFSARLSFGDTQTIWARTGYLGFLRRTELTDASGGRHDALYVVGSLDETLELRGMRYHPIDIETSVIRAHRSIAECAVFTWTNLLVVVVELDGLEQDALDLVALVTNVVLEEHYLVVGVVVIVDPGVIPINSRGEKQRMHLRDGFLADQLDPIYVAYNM

On to `O=C(CCl)Nc1cc(C(F)(F)F)cc(C(F)(F)F)c1` [KBO3], for which the Liganded result in assay [1] (setting [4]), in assay [1] (setting [5]), in assay [2] and in assay [3] was “YES” in each case. The entries for the “100 Max” value (at RNF7 RING-box protein 2 (uniprot Q9UBF6); in assay [2] (uniprot Q14689); in assay [3] (uniprot Q8N2W9)) were 20.4, 39.34 and 35.5, respectively. Moreover, the 100 ave at RNF7 RING-box protein 2 (uniprot Q9UBF6) was found to be 20.4; in assay [2] (uniprot Q14689) it was 39.34; in assay [3] (uniprot Q8N2W9), 30.1. The “500 Max” value in assay [2] (uniprot Q14689) is 91.21; in assay [3] (uniprot Q8N2W9) it was 87.0. The 500 ave is on record as 91.21 in assay [2] (uniprot Q14689) and 75.4 in assay [3] (uniprot Q8N2W9). In assay [3] (UniProt Q8N2W9, 100 uM), the “KB03_100 uM_percent_inhibition” value worked out at 80%.

Consider `COc1ccc2c(c1)CCCN2C(=O)CCl` [KB02], for which the Liganded result in assay [1] (setting [4]) is on record as “YES”; in assay [1] (setting [5]) it was “YES”; at RNF7 RING-box protein 2 (RNF7 Res# 88, uniprot Q9UBF6), “YES”; in assay [2] it was “YES”; in assay [3] it was “YES”.
